This is an account of results in ChEMBL document CHEMBL1201862, “PubChem BioAssay data set” (2004).

By EC50 is commonly meant the concentration that produces a half-maximal response. What is called AC50 is the midpoint of the concentration-response curve, whichever way the signal moves. Broadly, the IC50 is the concentration at which inhibition is half-maximal.

Molecules are shown by their SMILES. Activity calls are given as the source filed them.

One assay deals with Mucolipin-3 (Homo sapiens, UniProt Q8TDD5). Put plainly: Fluorescence counterscreen assay for […] agonists: dose response cell-based high-throughput screening assay to identify agonists of the transient receptor potential channel ML3 (TRPML3). [Related pubchem assays: 1424, 1448 ]. It is filed as functional. In general terms: The purpose of a counterscreen is to sort out artefacts and off-target activity.
Mucolipin-3, sequence (Q8TDD5 whole entry): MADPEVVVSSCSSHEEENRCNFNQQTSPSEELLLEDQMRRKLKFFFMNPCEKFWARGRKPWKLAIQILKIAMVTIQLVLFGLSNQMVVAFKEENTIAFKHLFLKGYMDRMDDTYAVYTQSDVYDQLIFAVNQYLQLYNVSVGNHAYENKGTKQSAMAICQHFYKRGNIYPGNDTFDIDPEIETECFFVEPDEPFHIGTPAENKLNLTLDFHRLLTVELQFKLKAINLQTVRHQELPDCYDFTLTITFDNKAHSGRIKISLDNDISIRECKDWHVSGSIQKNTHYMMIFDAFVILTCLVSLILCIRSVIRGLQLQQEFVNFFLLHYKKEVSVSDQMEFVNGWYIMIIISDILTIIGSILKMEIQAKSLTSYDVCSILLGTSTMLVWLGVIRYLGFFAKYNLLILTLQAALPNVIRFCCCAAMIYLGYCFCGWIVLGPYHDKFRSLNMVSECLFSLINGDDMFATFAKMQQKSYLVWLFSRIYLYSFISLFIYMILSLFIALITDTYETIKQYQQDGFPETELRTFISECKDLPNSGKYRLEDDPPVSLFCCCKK

A further assay addresses Ion channel NompC (Danio rerio, UniProt Q7T1G6). Put plainly: Dose response cell-based high-throughput screening assay for agonists of the transient receptor potential channel N1 (TRPN1). [Related pubchem assays (depositor defined):AID1424, AID1448]. The assay is classed as functional.
The next assay concerns INS1. Put plainly: beta cell apoptosis inhibitors, cytokine rescue, dose response, luminescence, retest (AID 449756).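 Note: cell death triggered by IL-1 beta plus TNF-alpha plus IFN-gamma mixture; protective hits raise ATP signal compared with cytokine alone wells.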 The assay is classed as functional, cell-based. The note with it: Rattus norvegicus.
The target in a further assay is Cytochrome P450 2D6 (Homo sapiens, UniProt P10635).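 Note: CYP2D6 member of a cytochrome P450 panel assay.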
Cytochrome P450 2D6, sequence (P10635 whole entry): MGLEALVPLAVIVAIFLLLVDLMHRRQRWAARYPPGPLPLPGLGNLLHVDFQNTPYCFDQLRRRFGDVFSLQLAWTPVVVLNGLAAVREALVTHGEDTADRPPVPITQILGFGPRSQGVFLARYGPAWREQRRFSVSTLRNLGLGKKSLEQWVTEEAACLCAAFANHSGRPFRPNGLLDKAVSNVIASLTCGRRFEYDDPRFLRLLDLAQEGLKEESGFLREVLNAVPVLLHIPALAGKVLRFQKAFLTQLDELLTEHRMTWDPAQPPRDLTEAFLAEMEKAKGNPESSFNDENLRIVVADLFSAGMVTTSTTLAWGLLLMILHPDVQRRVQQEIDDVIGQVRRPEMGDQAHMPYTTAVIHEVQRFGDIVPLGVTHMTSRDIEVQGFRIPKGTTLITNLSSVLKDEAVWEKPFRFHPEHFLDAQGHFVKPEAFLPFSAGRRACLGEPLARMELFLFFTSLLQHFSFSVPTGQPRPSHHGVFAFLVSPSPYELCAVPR
Assay [1] can be described thus: inhibitors of intracellular T. cruzi replication, confirmation, NIH3T3 host cells, beta-gal luminescence (AID 2044).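 Note: intracellular parasites grown in NIH/3T3 mouse fibroblasts as host cells; luminescent beta-galactosidase reporter signal from transgenic T. cruzi replicating inside host cells; inhibitors lower the luminescence signal.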 It is filed as functional, cell-based.
The nature of assay [2]: Luminescence Cell-Based Dose Retest to Confirm Inhibitors of Cancer Stem Cells. [Related pubchem assays (depositor defined):AID2717, AID2721]. It is filed as functional. As to conditions: Homo sapiens.
Assay [3] can be described thus: cytotoxicity toward NIH3T3 fibroblasts, dose response, counter-screen, cell-based, ATP luminescence, mouse fibroblasts (AID 2010).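 Note: cells exposed to compound for about 90 hours before reading.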 It is filed as functional.
In another assay the target is Cytochrome P450 3A4 (Homo sapiens, UniProt P08684).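 Note: CYP3A4 tested as one member of a cytochrome P450 panel screen.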
Cytochrome P450 3A4, sequence (P08684 whole entry): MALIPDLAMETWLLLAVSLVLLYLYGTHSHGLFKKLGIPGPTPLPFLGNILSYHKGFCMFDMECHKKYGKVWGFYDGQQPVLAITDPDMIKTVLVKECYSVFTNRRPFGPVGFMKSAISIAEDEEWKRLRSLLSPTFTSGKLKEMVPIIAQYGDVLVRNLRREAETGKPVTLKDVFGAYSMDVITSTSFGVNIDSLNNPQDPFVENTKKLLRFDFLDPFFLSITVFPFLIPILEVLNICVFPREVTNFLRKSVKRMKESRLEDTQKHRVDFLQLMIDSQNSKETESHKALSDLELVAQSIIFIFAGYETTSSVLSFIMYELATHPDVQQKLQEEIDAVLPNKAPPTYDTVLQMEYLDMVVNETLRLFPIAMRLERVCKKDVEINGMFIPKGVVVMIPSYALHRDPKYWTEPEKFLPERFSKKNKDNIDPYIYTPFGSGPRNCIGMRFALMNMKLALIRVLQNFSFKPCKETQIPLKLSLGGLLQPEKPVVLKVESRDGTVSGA
For another assay, the target named is Paired box protein Pax-8 (Homo sapiens, UniProt Q06710). Kind of assay: inhibitors of PAX8-driven TPO luciferase reporter, dose response, RMG-I cells, cherry-pick (AID 687027).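 Note: luciferase reporter driven by Pax8 target thyroperoxidase promoter measured by SteadyGlo luminescence.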 It is filed as functional, cell-based. For orientation: A reporter such as luciferase makes a cellular process visible.
Paired box protein Pax-8, sequence (Q06710 whole entry): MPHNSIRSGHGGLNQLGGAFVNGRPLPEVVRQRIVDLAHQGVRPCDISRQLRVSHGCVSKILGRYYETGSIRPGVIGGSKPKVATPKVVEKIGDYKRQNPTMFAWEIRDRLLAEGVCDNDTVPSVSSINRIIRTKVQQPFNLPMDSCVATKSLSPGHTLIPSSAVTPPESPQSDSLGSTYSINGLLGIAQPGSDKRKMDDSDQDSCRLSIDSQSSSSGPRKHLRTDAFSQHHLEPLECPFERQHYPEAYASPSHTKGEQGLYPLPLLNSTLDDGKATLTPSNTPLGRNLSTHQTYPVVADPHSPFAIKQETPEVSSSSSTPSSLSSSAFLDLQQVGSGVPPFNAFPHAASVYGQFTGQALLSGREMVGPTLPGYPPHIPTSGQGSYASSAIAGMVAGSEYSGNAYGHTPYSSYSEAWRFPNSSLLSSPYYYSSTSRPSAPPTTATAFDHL
The nature of assay [4]: Luminescence Cell-Based Dose Response HTS to Identify Activators of Luciferase Translation or Activity in H4 […] Cells. [Related pubchem assays: 1829 (Project Summary), 1814 (Primary HTS)]. It is filed as functional.
Assay [5] deals with T1, Replicative DNA helicase DnaB (Mycobacterium tuberculosis, UniProt P9WMR3).
T1 sequence (P9WMR3 whole entry): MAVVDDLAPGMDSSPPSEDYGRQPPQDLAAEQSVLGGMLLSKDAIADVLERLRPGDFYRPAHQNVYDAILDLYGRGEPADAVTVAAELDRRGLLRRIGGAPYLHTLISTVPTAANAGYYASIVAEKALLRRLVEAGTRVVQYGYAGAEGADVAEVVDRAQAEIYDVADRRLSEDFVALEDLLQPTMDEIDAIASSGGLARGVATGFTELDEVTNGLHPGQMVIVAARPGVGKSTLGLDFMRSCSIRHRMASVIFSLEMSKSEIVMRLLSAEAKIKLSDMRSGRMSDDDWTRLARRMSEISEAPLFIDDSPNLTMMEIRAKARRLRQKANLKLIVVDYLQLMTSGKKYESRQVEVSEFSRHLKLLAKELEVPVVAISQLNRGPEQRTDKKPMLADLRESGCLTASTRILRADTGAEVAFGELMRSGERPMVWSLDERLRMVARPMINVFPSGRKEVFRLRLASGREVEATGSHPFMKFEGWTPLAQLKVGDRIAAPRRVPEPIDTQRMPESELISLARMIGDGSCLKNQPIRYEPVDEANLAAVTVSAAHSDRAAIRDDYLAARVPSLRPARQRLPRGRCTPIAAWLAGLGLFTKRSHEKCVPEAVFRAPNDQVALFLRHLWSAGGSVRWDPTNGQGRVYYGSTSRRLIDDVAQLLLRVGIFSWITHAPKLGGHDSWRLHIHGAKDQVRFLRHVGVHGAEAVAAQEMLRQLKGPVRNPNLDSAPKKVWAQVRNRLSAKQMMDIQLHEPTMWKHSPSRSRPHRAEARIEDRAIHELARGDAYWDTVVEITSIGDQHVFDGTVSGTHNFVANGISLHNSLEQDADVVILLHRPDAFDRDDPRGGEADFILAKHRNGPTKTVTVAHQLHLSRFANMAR
Kind of assay: DnaB intein splicing inhibitors, dose response, biochemical, cell-free fluorescence (AID 449749). It is filed as functional.

Another assay has as its system H4. Put plainly: Luminescence Cell-Based Dose Response HTS to Identify Activators of 5'UTR Stem-Loop Driven Prion Protein mRNA Translation in H4 Neuroglioblastoma Cells. [Related pubchem assays: 1829 (Project Summary), 1814 (Primary HTS)]. The assay is classed as functional. The note with it: Homo sapiens.
The test system of assay [6] is BJ. Kind of assay: cytotoxicity toward BJ-TERT-LT-ST fibroblasts, dose response, cell-based, RAS-independent, luminescence (AID 1935).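 Note: BJ fibroblasts immortalized with TERT plus LT and ST oncogenes.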 The assay is classed as functional. The note with it: Homo sapiens.
Assay [7] deals with BJ. Kind of assay: cytotoxicity toward Ras-transformed BJeLR fibroblasts, dose response, cell-based, alamar blue fluorescence, cherrypicked samples (AID 2631).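 Note: confirmatory dose-response assay in RAS-dependent BJ fibroblasts engineered with TERT, LT and ST, with cytotoxicity read by fluorescence.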 As to conditions: Homo sapiens. The assay is classed as functional. On the technique in general: Resazurin is reduced to fluorescent resorufin, in cell work by metabolically active cells.
The nature of assay [8]: cytotoxicity toward DRD oncogenic fibroblasts, dose response, cell-based, non-viral oncogenic, luminescence (AID 1934). The assay is classed as functional. As to conditions: Homo sapiens.
The nature of assay [9]: Luminescence Cell-Based Dose Confirmation HTS to Identify Activators of 5'UTR Stem-Loop Driven Alpha-Synuclein mRNA Translation in H4 Neuroglioblastoma Cells. [Related pubchem assays: 1829 (Project Summary), 1814 (Primary HTS)]. The assay is classed as functional.
In assay [10] the target is Glutathione S-transferase omega-1 (Homo sapiens, UniProt P78417). Put plainly: GSTO1 inhibitor potency, recombinant enzyme, late-stage follow-up, biochemical, SE-Rh probe, in-gel fluorescence, powder samples (AID 463081). It is filed as functional.
Glutathione S-transferase omega-1, sequence (P78417 whole entry): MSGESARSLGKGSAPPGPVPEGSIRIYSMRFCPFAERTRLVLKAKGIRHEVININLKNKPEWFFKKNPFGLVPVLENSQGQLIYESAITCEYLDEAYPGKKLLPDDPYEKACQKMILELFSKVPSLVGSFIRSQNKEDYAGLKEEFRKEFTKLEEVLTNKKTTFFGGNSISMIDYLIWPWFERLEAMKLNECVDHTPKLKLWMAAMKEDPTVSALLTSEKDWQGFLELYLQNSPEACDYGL
Assay [11] has as its system BJ. Kind of assay: cytotoxicity toward BJ-TERT fibroblasts, dose response, cell-based, RAS-independent, luminescence (AID 1933). It is filed as functional. As to conditions: Homo sapiens.
Assay [12] has as its system BJ. Put plainly: cells. It is filed as functional, cell-based. The note with it: Homo sapiens.
The target of a further assay is T2, Protein RecA (Mycobacterium tuberculosis, UniProt P9WHJ3).
T2 sequence (P9WHJ3 whole entry): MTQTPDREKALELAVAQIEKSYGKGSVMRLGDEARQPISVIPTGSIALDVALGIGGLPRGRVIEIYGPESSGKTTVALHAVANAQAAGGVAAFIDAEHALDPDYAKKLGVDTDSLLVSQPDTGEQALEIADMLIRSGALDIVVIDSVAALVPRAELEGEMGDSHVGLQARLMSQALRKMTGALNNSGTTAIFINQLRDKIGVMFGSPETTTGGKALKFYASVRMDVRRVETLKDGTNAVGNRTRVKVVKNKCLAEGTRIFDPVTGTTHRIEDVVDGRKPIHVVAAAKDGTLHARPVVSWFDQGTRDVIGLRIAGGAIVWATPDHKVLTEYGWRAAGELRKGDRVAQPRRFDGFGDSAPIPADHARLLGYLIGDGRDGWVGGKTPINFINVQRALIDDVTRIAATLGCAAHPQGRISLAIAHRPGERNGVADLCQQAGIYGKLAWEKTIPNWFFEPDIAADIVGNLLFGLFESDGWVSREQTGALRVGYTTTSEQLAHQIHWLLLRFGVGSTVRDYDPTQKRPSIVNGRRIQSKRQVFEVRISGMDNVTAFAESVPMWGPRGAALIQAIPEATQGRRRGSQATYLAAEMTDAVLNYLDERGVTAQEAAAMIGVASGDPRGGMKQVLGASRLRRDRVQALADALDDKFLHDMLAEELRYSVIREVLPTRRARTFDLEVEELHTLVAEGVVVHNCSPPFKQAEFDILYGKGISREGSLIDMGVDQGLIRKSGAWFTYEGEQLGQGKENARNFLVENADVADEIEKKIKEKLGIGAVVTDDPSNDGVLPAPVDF
Put plainly: Fluorescence Cell-Free Homogeneous Dose Retest to Identify Inhibitors of RecA-Intein Splicing Activity. [Related pubchem assays (depositor defined):AID2097, AID2223, AID489010, AID492950]. It is filed as functional.

Assay [13] in a line: non-specific cell cytotoxicity, dose response, cytotoxicity control for PAX8 inhibitor project, plate reader, dry powder samples (AID 743021). The assay is classed as functional, cell-based.
The target in the next assay is T3, Coagulation factor XII (Homo sapiens, UniProt P00748).
T3 sequence (P00748 whole entry): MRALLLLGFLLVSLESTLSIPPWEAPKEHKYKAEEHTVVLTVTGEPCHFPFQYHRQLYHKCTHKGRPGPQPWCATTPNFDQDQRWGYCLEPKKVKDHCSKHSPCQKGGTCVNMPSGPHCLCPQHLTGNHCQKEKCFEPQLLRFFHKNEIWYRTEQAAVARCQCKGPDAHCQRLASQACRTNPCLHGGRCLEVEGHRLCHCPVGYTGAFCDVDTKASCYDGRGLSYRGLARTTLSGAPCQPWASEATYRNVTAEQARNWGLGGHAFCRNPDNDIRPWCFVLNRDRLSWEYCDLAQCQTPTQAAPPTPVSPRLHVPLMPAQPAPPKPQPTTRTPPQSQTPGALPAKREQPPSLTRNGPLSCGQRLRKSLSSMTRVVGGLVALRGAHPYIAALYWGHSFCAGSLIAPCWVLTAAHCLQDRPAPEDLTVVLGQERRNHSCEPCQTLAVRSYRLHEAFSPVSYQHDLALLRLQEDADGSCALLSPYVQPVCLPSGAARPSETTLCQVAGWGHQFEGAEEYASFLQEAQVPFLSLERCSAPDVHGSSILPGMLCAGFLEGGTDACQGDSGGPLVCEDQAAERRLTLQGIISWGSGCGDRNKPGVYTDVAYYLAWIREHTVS
Put plainly: FXIIa inhibitor potency, concentration-response, biochemical (AID 716). It is filed as functional.

For assay [14], the target named is Tyrosine-protein phosphatase non-receptor type 7 (Homo sapiens, UniProt P35236). Kind of assay: HePTP (PTPN7) phosphatase inhibitor potency, SAR follow-up, biochemical, set 2 (AID 449736). It is filed as functional.
Tyrosine-protein phosphatase non-receptor type 7, sequence (P35236 whole entry): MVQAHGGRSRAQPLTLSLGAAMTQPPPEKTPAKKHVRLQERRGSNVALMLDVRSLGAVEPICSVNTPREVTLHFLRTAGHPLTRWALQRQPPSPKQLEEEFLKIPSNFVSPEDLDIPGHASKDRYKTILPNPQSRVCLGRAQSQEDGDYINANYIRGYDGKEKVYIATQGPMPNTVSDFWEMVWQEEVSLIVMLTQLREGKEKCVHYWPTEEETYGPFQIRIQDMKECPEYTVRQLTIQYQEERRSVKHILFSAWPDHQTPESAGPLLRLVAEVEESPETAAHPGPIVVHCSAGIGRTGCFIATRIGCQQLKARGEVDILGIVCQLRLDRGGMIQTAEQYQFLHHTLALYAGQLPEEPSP

Ion channel NompC, sequence (Q7T1G6 whole entry): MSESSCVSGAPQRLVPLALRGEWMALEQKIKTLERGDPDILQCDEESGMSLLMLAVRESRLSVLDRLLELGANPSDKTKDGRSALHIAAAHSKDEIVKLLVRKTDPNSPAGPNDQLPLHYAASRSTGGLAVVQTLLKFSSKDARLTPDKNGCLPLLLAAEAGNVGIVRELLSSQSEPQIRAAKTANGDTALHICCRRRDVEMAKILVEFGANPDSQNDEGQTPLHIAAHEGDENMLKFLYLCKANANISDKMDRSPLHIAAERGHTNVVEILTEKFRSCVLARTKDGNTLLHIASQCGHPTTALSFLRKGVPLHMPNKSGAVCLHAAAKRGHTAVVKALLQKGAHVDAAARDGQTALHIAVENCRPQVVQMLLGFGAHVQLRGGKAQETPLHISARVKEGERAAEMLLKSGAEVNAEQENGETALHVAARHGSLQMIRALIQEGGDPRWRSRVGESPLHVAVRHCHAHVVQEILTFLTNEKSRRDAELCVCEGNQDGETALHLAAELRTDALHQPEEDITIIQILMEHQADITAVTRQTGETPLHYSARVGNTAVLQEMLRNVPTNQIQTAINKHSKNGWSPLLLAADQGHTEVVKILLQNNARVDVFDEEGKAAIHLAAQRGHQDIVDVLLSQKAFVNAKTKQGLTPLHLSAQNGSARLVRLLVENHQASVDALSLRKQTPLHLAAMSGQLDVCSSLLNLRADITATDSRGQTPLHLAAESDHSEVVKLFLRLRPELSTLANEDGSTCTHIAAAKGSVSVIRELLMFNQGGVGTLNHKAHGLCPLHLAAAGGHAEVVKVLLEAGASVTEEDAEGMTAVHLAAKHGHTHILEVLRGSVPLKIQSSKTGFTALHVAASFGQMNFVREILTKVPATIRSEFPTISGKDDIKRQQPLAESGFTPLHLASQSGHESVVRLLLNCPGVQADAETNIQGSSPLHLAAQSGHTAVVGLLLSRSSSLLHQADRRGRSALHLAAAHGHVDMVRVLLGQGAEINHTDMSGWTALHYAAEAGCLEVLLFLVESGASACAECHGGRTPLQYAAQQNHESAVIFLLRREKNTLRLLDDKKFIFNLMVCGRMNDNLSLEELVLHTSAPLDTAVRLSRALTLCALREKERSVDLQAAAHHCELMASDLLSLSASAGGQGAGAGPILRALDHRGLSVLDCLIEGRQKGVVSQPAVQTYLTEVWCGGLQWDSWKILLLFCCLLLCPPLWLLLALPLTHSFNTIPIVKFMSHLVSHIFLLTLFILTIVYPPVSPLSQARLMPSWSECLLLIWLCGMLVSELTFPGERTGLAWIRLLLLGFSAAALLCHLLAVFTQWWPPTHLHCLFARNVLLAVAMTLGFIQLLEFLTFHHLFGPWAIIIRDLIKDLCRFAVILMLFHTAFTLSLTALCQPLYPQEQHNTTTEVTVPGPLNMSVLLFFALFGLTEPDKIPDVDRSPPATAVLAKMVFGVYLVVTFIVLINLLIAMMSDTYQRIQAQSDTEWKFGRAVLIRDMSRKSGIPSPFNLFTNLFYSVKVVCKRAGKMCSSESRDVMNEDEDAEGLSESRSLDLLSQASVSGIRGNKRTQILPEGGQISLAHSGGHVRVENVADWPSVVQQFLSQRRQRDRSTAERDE

For `COC(=O)c1cccc(NC(=O)Nc2ccc(Cl)c(Cl)c2)c1`, the EC50 on Mucolipin-3 is > 29.9 µM (not active); on Ion channel NompC, > 29.9 µM (inactive); in assay [1], 2.15 µM (active); in [3], > 60 µM (inconclusive). Besides, the half-maximal activity concentration (AC50) in the assay on INS1 was 6.38 µM (active); on Cytochrome P450 2D6, 22.4 µM (inconclusive); in [2] it was 2.77 µM (active); on Cytochrome P450 3A4, 22.4 µM (inconclusive).
As to `O=C(NC1CCCCC1)C(c1cccnc1)N(C(=O)CCl)c1ccc(F)cc1` (centres undefined), the AC50 at Paired box protein Pax-8 was 1.43 µM (active); in assay [5], 5.76 µM (active); in assay [2] it was 1.54 µM (active); in assay [13] it was 7.37 µM (active). Moreover, the 50% effective concentration (EC50) in assay [4] was 10.1 µM (active); in the assay with H4, > 120 µM (not active); in the assay with BJ [6] it was 7.25 µM (active); in the assay with BJ [7] it was 0.535 µM (active); in assay [8], 2.48 µM (active); in assay [9], > 120 µM (not active). In addition, the EC50 was 1.3 µM (inconclusive) in the assay with BJ [11], 5.32 µM (inconclusive) in the assay on BJ [12] and 0.816 µM (active) on Protein RecA. The half-maximal inhibitory concentration (IC50) in [10] is 0.054 µM (active).
With `COc1ccc2oc(C)c(C(=O)Cn3ccnc3)c2c1`, at Coagulation factor XII, the IC50 was > 50 µM (inactive).
In the case of `NS(=O)(=O)c1ccc(NC(=S)Nc2ccc3c(c2)CCC3)cc1`, the IC50 in assay [14] was 7.93 µM (active).
